Test results reported in US11793841B2, “Microbial compositions and methods for treating type 2 diabetes, obesity, and metabolic syndrome” (Solarea Bio, Inc., priority 2017, dated 2023).

Tested on: diet induced obese (DIO) C57BL/6J mice
Assay: Oral glucose tolerance test (OGTT) in diet induced obese mice
Format: in vivo
Settings: monotherapy; by 60 minutes
Description: After 4 weeks of dosing mice with test article, an OGTT was performed. Here, mice were fasted for 6 hours after which fasting blood glucose levels were measured via tail vein blood using a glucometer (One-Touch Ultra II). Mice were then dosed with an oral glucose bolus (2 g/kg) via oral gavage, and blood glucose was measured at 20, 40, 60, and 120 minutes post gavage.

## CN(C)C(=N)N=C(N)N [metformin]
  blood glucose after glucose challenge: remained elevated
